Experimental data as given in patent publication US8440686B2, “Nalmefene prodrugs” (Janssen Pharmaceutica NV, priority 2008, dated 2013).

Assay: In vivo PK studies in dog (oral administration): plasma levels of nalmefene
Settings: oral administration of nalmefene itself
Method: C.2. In vivo PK Studies in Dog (Oral Administration): Plasma Levels of Nalmefene
Doses at 10 mg/kg or 20 mg/kg body weight of a compound of formula (I) or of nalmefene itself in a solution of 20% HP-β-CD (hydroxypropyl-β-cyclodextrines) were used and orally administered to dogs.
Blood samples were taken over a period of 192 hours after oral administration. Blood samples were processed to obtain plasma. Plasma samples were analysed individually for nalmefene by means of a qualified LC-MS/MS-method.

In the case of `C=C1CC[C@@]2(O)[C@H]3Cc4ccc(O)c5c4[C@@]2(CCN3CC2CC2)[C@H]1O5` [nalmefene, 17-cyclopropylmethyl-4,5α-epoxy-6-methylenemorphinan-3,14-diol], the “time for which plasma levels of nalmefene can be measured after oral administration” value is reported as “a few hours”.
